{"source": "BindingDB's records for doi:10.1038/sj.bjp.0702293", "about": "(Monash University, 1999)", "key": {"[1]": {"molecular_target": "5-hydroxytryptamine receptor 7 (Cavia porcellus, UniProt P50407)", "sequence (P50407 whole entry)": "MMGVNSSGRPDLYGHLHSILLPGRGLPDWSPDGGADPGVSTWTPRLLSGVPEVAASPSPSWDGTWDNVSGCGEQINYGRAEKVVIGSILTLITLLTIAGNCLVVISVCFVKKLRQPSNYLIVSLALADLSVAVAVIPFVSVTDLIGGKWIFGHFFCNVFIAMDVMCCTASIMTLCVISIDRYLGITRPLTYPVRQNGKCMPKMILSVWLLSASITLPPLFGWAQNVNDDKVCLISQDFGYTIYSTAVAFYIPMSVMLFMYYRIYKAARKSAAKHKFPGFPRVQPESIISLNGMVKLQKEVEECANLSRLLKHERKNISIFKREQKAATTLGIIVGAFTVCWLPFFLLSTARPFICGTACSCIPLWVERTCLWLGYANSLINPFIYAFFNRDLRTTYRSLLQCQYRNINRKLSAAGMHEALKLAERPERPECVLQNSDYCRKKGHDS"}, "[2]": {"molecular_target": "5-hydroxytryptamine receptor 7 (Rattus norvegicus, UniProt P32305)", "sequence (P32305 whole entry)": "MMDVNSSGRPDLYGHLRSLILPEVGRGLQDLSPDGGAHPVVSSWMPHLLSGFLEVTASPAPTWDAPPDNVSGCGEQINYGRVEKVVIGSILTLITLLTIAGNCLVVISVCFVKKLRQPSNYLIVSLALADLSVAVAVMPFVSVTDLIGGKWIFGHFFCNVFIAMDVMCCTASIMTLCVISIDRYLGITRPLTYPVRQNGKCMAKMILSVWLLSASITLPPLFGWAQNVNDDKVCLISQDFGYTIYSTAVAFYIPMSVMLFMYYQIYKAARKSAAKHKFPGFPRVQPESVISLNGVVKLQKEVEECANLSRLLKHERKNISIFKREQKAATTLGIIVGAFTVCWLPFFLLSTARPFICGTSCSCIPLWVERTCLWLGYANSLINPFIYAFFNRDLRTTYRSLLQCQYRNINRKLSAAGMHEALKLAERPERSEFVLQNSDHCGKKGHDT"}}}
{"smiles": "Cc1nc2n(c(=O)c1CCN1CCC(c3noc4cc(F)ccc34)CC1)CCCC2", "note": "[3-{2-[4-(6-Fluoro-benzo[d]isoxazol-3-yl)-piperidin-1-yl]-ethyl}-2-methyl-6,7,8,9-tetrahydro-pyrido[1,2-a]pyrimidin-4-one(risperidone)]", "values": [{"measurement": "Ki", "setting": "[1]", "value": 0.4, "unit": "nM"}]}
{"smiles": "CNS(=O)(=O)Cc1ccc2[nH]cc(CCN(C)C)c2c1", "note": "[Sumax]", "values": [{"measurement": "Ki", "setting": "[2]", "value": 25.1, "unit": "nM"}, {"measurement": "Ki", "setting": "[1]", "value": 100, "unit": "nM"}]}
{"smiles": "COc1ccc2[nH]cc(CCN)c2c1", "note": "[tryptamine, 5-Methoxy]", "values": [{"measurement": "Ki", "setting": "[1]", "value": 0.25, "unit": "nM"}]}
{"smiles": "Cc1nc2sccn2c(=O)c1CCN1CCC(=C(c2ccc(F)cc2)c2ccc(F)cc2)CC1", "values": [{"measurement": "Ki", "setting": "[2]", "value": 25.1, "unit": "nM"}, {"measurement": "Ki", "setting": "[1]", "value": 5.01, "unit": "nM"}]}
{"smiles": "NCCc1c[nH]c2ccc(O)cc12", "note": "[[3H]-5-HT]", "values": [{"measurement": "Ki", "setting": "[1]", "value": 0.1, "unit": "nM"}]}
{"smiles": "CCN(CC)C(=O)[C@@H]1C=C2c3cccc4[nH]cc(c34)C[C@H]2N(C)C1", "note": "[(4R,7R)-N,N-diethyl-6-methyl-6,11-diazatetracyclo[7.6.1.0^{2,7}.0^{12,16}]hexadeca-1(16),2,9,12,14-pentaene-4-carboxamide]", "values": [{"measurement": "Ki", "setting": "[1]", "value": 0.4, "unit": "nM"}]}
{"smiles": "CN1C[C@@H](NS(=O)(=O)N(C)C)C[C@@H]2c3cccc4c3c(cn4C)C[C@H]21", "note": "[MESULERGINE]", "values": [{"measurement": "Ki", "setting": "[2]", "value": 10, "unit": "nM"}, {"measurement": "Ki", "setting": "[1]", "value": 12.6, "unit": "nM"}]}
{"smiles": "CC(C)NCC(O)COc1cccc2[nH]ccc12", "note": "(centres undefined) [LB-46]", "values": [{"measurement": "Ki", "setting": "[2]", "value": "> 10000", "unit": "nM"}, {"measurement": "Ki", "setting": "[1]", "value": 501, "unit": "nM"}]}
{"smiles": "CN1C[C@H](CNC(=O)OCc2ccccc2)C[C@@H]2c3cccc4c3c(cn4C)C[C@H]21", "note": "[METERGOLINE]", "values": [{"measurement": "Ki", "setting": "[2]", "value": 10, "unit": "nM"}, {"measurement": "Ki", "setting": "[1]", "value": 1.58, "unit": "nM"}]}
